Source: the NIST ThermoML archive (doi:10.1021/acs.jced.8b00387)
Values joined by “and” are separate entries in the source; they are usually repeats but may differ in a detail not shown here. Identical values can stand only once. ± gives the expanded uncertainty stated by the source.

Settings: for viscosity / mass density / speed of sound: 102 kPa, Liquid; for viscosity: Concentric cylinders viscometry; for mass density: Vibrating tube method; for speed of sound: Frequency=3 MHz, Single path-length method; for surface tension liquid-gas: Pendant drop shape

Compound	viscosity (253.15 K)	mass density (253.15 K)	speed of sound (288.15 K)	mass density (288.15 K)	viscosity (293.15 K)	speed of sound (293.15 K)	mass density (293.15 K)	viscosity (303.15 K)	speed of sound (303.15 K)	mass density (303.15 K)	viscosity (313.15 K)	speed of sound (313.15 K)	mass density (313.15 K)	viscosity (323.15 K)	speed of sound (323.15 K)	mass density (323.15 K)	viscosity (333.15 K) [mPa·s]	speed of sound (333.15 K)	mass density (333.15 K)	surface tension liquid-gas (295 K) [mN/m]	other results
CC(CC(C)(C)C)CC(C)(C)CC(C)(C)C (stereo not given) [2,2,4,4,6,8,8-heptamethylnonane]	14.09 ± 0.19 mPa·s	811.4 ± 2 kg/m3	1305.1 ± 1.2 m/s	787.76 ± 0.71 kg/m3	3.75 ± 0.03 mPa·s	1285.9 ± 1.2 m/s	784.41 ± 0.71 kg/m3	2.97 ± 0.03 mPa·s	1248.3 ± 1.2 m/s	777.73 ± 0.72 kg/m3	2.4 ± 0.02 mPa·s	1211.7 ± 1.2 m/s	770.99 ± 0.72 kg/m3	1.97 ± 0.02 mPa·s	1175.9 ± 1.2 m/s	764.27 ± 0.72 kg/m3	1.65 ± 0.02	1141.3 ± 1.2 m/s	757.53 ± 0.72 kg/m3		surface tension liquid-gas (294.7 K): 24.2 ± 0.3 mN/m
CC(CC(C)(C)C)CC(C)(C)C [2,2,4,6,6-pentamethylheptane]	3.08 ± 0.06 mPa·s	775.8 ± 2 kg/m3	1223.7 ± 1.3 m/s	748.8 ± 0.7 kg/m3	1.31 ± 0.02 mPa·s	1203.8 ± 1.3 m/s	745.2 ± 0.7 kg/m3	1.13 ± 0.02 mPa·s	1164.7 ± 1.3 m/s	737.9 ± 0.7 kg/m3	0.955 ± 0.021 mPa·s	1126.5 ± 1.3 m/s	730.6 ± 0.7 kg/m3	0.849 ± 0.021 mPa·s	1089.1 ± 1.3 m/s	723.2 ± 0.7 kg/m3	0.744 ± 0.021	1052.7 ± 1.3 m/s	715.8 ± 0.7 kg/m3		surface tension liquid-gas (294 K): 22.1 ± 0.4 mN/m
CCCCc1ccccc1 [butylbenzene]	2.21 ± 0.06 mPa·s	892.6 ± 2 kg/m3	1373.7 ± 1.1 m/s	864.47 ± 0.71 kg/m3	1 ± 0.02 mPa·s	1353.2 ± 1.1 m/s	860.17 ± 0.71 kg/m3	0.88 ± 0.021 mPa·s	1314.3 ± 1.1 m/s	852.13 ± 0.71 kg/m3	0.775 ± 0.021 mPa·s	1276.1 ± 1.1 m/s	844.07 ± 0.71 kg/m3	0.687 ± 0.021 mPa·s	1238.4 ± 1.1 m/s	835.98 ± 0.71 kg/m3	0.615 ± 0.021	1201.5 ± 1.1 m/s	827.86 ± 0.71 kg/m3	29 ± 0.3	
CCCCCCc1ccccc1 [hexylbenzene]	4.56 ± 0.07 mPa·s and 4.63 ± 0.04 mPa·s	888.9 ± 0.4 kg/m3 and 889.1 ± 2 kg/m3	1395.8 ± 1.6 m/s and 1395.6 ± 1.6 m/s	862.3 ± 0.4 kg/m3 and 862.4 ± 0.8 kg/m3	1.64 ± 0.02 mPa·s and 1.66 ± 0.02 mPa·s	1376 ± 1.6 m/s and 1376.5 ± 1.6 m/s	858.5 ± 0.4 kg/m3 and 858.6 ± 0.8 kg/m3	1.39 ± 0.02 mPa·s and 1.41 ± 0.01 mPa·s	1338.1 ± 1.6 m/s and 1338.7 ± 1.6 m/s	850.9 ± 0.4 kg/m3 and 851 ± 0.8 kg/m3	1.17 ± 0.02 mPa·s and 1.19 ± 0.01 mPa·s	1301.1 ± 1.6 m/s and 1301.6 ± 1.6 m/s	843.3 ± 0.4 kg/m3 and 843.4 ± 0.8 kg/m3	1.03 ± 0.02 mPa·s and 1.04 ± 0.01 mPa·s	1264.7 ± 1.6 m/s and 1265.3 ± 1.6 m/s	845.7 ± 0.4 kg/m3 and 835.8 ± 0.8 kg/m3	0.9 ± 0.02	1229.4 ± 1.6 m/s and 1229.8 ± 1.6 m/s	828.1 ± 0.4 kg/m3 and 828.2 ± 0.8 kg/m3	29.3 ± 0.4	
